This is an account of results in ChEMBL document CHEMBL5230115, “Bioactive pyrrole-based compounds with target selectivity” (Eur J Med Chem, 2020).

What is called IC50 is the concentration at which inhibition is half-maximal. The term inhibition denotes how much of the control response was suppressed.

The subject of experiment [1] is A549. Kind of experiment: Antiproliferative activity against human A549 cells assessed as cell growth inhibition measured after 24 hrs by MTT assay. Format: functional, cell-based. To be noted: A549, 24 h. On the technique in general: Formazan colour is commonly taken as a measure of viable cells.
Experiment [2] relates to PC-3. Kind of experiment: Antiproliferative activity against human PC-3 cells assessed as cell growth inhibition measured after 24 hrs by MTT assay. Format: functional, cell-based. The note with it: PC-3, 24 h.
The test system of experiment [3] is A549. In words: Antiproliferative activity against human A549 cells assessed as cell growth inhibition at 5 uM in presence of etoposide by CellTiter-Glo luminescent assay relative to control. The experiment is classed as functional. Also noted: scale not given: the % may be the effect or the level left. (In general: In ATP-based viability assays light output follows the ATP content of the culture.)

For experiment [4], the system named is A549. Kind of experiment: Antiproliferative activity against human A549 cells assessed as cell growth inhibition at 5 uM in presence of doxorubicin by CellTiter-Glo luminescent assay relative to control. The experiment is classed as functional. Also noted: scale not given: the % may be the effect or the level left.
Experiment [5] concerns the target Mitogen-activated protein kinase 3 (Homo sapiens) (UniProt P27361). In words: Inhibition of ERK1 (unknown origin) at 25 nM relative to control.
Experiment [6] addresses Vascular endothelial growth factor receptor 2 (Homo sapiens, UniProt P35968). In words: Inhibition of VEGFR2 (unknown origin) at 25 nM using Poly(Glu, Tyr) as substrate by Kinase-Glo plus luminescent kinase assay. Background: Kinase-Glo measures the ATP left after a reaction by luminescence.

The structures appear in SMILES notation.

Chain of Vascular endothelial growth factor receptor 2 (P35968 whole entry): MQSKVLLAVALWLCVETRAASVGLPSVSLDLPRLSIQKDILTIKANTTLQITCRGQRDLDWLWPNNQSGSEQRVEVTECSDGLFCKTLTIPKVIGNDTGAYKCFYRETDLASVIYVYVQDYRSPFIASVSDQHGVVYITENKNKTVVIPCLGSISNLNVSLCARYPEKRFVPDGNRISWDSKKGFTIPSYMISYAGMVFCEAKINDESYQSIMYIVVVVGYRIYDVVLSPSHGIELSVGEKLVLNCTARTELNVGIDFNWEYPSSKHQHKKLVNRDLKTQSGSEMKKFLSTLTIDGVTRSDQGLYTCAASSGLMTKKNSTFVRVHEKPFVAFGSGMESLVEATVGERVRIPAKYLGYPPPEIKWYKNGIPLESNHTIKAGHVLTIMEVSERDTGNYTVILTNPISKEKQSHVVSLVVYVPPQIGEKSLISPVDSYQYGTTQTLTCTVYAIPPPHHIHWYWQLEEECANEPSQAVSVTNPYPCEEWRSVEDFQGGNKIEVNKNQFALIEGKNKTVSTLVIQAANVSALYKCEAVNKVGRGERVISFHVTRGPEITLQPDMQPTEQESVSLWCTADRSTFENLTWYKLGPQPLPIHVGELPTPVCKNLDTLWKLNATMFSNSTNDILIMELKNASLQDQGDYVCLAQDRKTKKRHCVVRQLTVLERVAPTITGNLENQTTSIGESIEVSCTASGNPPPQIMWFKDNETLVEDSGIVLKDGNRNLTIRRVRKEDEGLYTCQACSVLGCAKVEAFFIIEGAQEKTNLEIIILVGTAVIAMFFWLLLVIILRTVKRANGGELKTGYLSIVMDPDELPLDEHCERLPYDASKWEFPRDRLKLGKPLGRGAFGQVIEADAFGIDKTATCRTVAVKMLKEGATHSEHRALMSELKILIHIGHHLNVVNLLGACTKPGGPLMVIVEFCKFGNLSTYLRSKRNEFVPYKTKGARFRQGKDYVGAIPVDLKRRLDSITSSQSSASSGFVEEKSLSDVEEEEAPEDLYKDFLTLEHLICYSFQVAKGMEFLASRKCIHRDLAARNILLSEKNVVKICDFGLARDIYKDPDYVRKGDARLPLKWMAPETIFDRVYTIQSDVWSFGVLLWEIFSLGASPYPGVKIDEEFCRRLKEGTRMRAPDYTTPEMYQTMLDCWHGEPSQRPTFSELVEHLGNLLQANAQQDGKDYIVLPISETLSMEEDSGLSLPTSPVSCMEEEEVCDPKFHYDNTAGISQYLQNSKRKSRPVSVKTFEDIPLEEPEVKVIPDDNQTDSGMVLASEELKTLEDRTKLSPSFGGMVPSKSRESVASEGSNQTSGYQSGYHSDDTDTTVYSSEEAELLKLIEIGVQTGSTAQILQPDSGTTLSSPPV
Chain of Mitogen-activated protein kinase 3 (Homo sapiens) (P27361 whole entry): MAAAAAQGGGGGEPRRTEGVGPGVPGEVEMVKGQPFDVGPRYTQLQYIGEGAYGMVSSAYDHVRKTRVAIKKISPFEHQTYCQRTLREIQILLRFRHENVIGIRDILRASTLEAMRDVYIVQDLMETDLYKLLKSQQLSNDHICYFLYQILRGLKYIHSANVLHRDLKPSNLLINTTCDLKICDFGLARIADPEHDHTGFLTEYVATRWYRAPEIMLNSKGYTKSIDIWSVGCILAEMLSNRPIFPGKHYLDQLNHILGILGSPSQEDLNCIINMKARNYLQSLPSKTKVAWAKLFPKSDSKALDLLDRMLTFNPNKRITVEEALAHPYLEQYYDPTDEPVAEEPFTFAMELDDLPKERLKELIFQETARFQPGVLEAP

As to `Cn1ccc2c(Nc3ccc(Cl)cc3)nc(NC(=O)Nc3ccc(F)cc3)nc21`, the IC50 in experiment [1] is 1.56 µM.

For the compound `Cn1ccc2c(Nc3cccc(Br)c3)nc(NC(=O)Nc3ccc(Cl)c(C(F)(F)F)c3)nc21`, the IC50 in experiment [2] is 1.04 µM. With `COc1ccc(-c2nc3ccc(C(=O)Nc4cn(C)c(C(=O)Nc5cc(C(=O)NCCCN(C)C)n(CCCN)c5)n4)cc3[nH]2)cc1`, the Activity in experiment [3] is 50%; in experiment [4] it was 22%. On to `Cc1cccc(NC(=O)Nc2ccc(Nc3ncnc4[nH]c(C)c(C)c34)cc2)c1`, for which, in experiment [5], the inhibition came to 50%. In experiment [6], the IC50 was determined as 0.0119 µM. As for `Cc1cccc(NC(=O)Nc2ccc(Oc3ncnc4[nH]c(C)c(C)c34)cc2)c1`, the inhibition in experiment [5] amounted to 50%. In experiment [6], the IC50 is 0.0136 µM. As to `Cn1ccc2c(Nc3cccc(Br)c3)nc(NC(=O)Nc3ccc(F)c(C(F)(F)F)c3)nc21`, in experiment [1], the IC50 came out at 1.48 µM. On the same count and under the same terms, next, `Cn1ccc2c(Nc3ccc(F)c(Cl)c3)nc(NC(=O)Nc3cccc(C(F)(F)F)c3)nc21`: 0.35 µM.
